Test results taken from patent US6599925B2 (Wyeth, priority 2001, dated 2003).
Structures can show the parent of a compound that is named as a salt.

Legend:
[1] = target: T1, recombinant human plasminogen activator inhibitor-1 (PAI-1) (Homo sapiens, UniProt P05121); assay: Primary Screen for the PAI-1 Inhibition (chromogenic tPA assay); assay type: biochemical; settings: for IC50: footnote b: determined by a modification of the Primary Screen for PAI-1 Inhibition; for inhibition at 25 µM: 25 μM test compound
T1 construct: purchased Molecular Innovations, Royal Oak, Mich
Experimental: Primary Screen for the PAI-1 Inhibition
Test compounds are dissolved in DMSO at a final concentration of 10 mM, then diluted 100×in physiologic buffer. The inhibitory assay is initiated by the addition of the test compound (1-100 μM final concentration, maximum DMSO concentration of 0.2%) in a pH 6.6 buffer containing 140 nM recombinant human plasminogen activator inhibitor-1 (PAI-1; Molecular Innovations, Royal Oak, Mich.). Following a 1 hour incubation at room temperature, 70 nM of recombinant human tissue plasminogen activator (tPA) is added, and the combination of the test compound, PAI-1 and tPA is incubated for an additional 30 minutes. Following the second incubation, Spectrozyme-tPA (American Diagnostica, Greenwich, Conn.), a chromogenic substrate for tPA, is added and absorbance read at 405 nm at 0 and 60 minutes. Relative PAI-1 inhibition is equal to the residual tPA activity in the presence of the test compounds and PAI-1. Control treatments include the complete inhibition of tPA by PAI-1 at the molar ratio employed (2:1), and the absence of any effect of the test compound on tPA alone.

[2] = target: human PAI-1 (Homo sapiens, UniProt P05121); assay: Assay for determining IC50 of inhibition of PAI-1 (Antibody Assay); assay type: binding; settings: footnote a: determined by the Antibody Assay; active PAI-1 bound to tPA-coated plate, pH 7.5
Experimental: Assay for Determining IC50 of Inhibition of PAI-1
This assay is based upon the non-SDS dissociable interaction between tPA and active PAI-1. Assay plates are initially coated with human tPA (10 μg/ml). Test compounds are dissolved in DMSO at 10 mM, then diluted with physiologic buffer (pH 7.5) to a final concentration of 1-50 μM. The test compounds are incubated with human PAI-1 (50 ng/ml) for 15 minutes at room temperature. The tPA-coated plate is washed with a solution of 0.05% Tween 20 and 0.1% BSA, then the plate is blocked with a solution of 3% BSA. An aliquot of the test compound/PAI-1 solution is then added to the tPA-coated plate, incubated at room temperature for 1 hour, and washed. Active PAI-1 bound to the plate is assessed by adding an aliquot of a 1:1000 dilution of the 33B8 monoclonal antibody against human PAI-1, and incubating the plate at room temperature for 1 hour (Molecular Innovations, Royal Oak, Mich.). The plate is again washed, and a solution of goat anti-mouse IgG-alkaline phosphatase conjugate is added at a 1:50,000 dilution in goat serum. The plate is incubated 30 minutes at room temperature, washed, and a solution of alkaline phosphatase substrate is added. The plate is incubated 45 minutes at room temperature, and color development is determined at OD405nm. The quantitation of active PAI-1 bound to tPA at varying concentrations of the test compound is used to determine the IC50. Results are analyzed using a logarithmic best-fit equation. The assay sensitivity is 5 ng/ml of human PAI-1 as determined from a standard curve ranging from 0-100 ng/ml.

T1 sequence (P05121 24-402): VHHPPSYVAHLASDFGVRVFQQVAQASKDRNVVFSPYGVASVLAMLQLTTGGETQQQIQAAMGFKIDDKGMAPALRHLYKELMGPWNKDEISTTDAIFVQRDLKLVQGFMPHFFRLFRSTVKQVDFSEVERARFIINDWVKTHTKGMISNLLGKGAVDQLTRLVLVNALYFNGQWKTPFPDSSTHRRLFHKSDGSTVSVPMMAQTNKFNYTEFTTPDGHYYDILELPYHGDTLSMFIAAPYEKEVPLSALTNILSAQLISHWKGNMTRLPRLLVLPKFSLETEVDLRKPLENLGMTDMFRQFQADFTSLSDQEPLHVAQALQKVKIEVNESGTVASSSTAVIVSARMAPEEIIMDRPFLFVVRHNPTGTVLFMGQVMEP
human PAI-1, sequence (P05121 24-402): as above

Compound	melting point	IC50 [1]	inhibition at 25 µM [1]	IC50 [2]
CCCCC(=O)c1c(-c2ccc3c(-c4ccc(C(F)(F)F)cc4)c(OCC(=O)O)ccc3c2)oc2ccccc12 (as salt: sodium) [Example 15, 2-({6-(3-Pentanoyl-1-benzofuran-2-yl)-1-[4-(trifluoromethyl)phenyl]-2-naphthyl}oxy) acetic acid, sodium salt]	274 to 275 °C (dec.)			
CCCCC(=O)c1c(-c2ccc3cc(OCC(=O)O)ccc3c2)oc2ccccc12 [Example 2, 2-{[6-(3-pentanoyl-1-benzofuran-2-yl)-2-naphthyl]oxy}acetic acid]	130 to 132 °C		43%	
CCCCC(=O)c1c(-c2ccc3cc(OCc4nnn[nH]4)ccc3c2)oc2ccccc12 [Example 3, 1-{2-[6-(1H-1,2,3,4-Tetraazol-5-ylmethoxy)-2-naphthyl]-1-benzofuran-3-yl}-1-pentanone]	150 to 151 °C	12.7 µM		
CCCCC(=O)c1c(-c2ccc3cc(OC(Cc4ccccc4)C(=O)O)ccc3c2)oc2ccccc12 (stereo not drawn) [Example 4, 2-{[6-(3-Pentanoyl-1-benzofuran-2-yl)-2-naphthyl]oxy}-3-phenylpropanoic acid]	144 to 145 °C			16.6 µM
CC(C)(C)CC(=O)c1c(-c2ccc3cc(OCC(=O)O)ccc3c2)oc2ccccc12 [Example 6, 2-({6-[3-(3,3-Dimethylbutanoyl)-1-benzofuran-2-yl]-2-naphthyl}oxy)acetic acid]	207 to 209 °C			8.7 µM
CC(C)CC(=O)c1c(-c2ccc3cc(OCC(=O)O)cc(Br)c3c2)oc2ccccc12 [Example 7]	140 to 142 °C			
O=C(O)COc1ccc2cc(-c3oc4ccccc4c3C(=O)CC3CCCC3)ccc2c1 [Example 10, 2-({6-[3-(2-Cyclopentylacetyl)-1-benzofuran-2-yl]-2-naphthyl}oxy)acetic acid]	177 to 178 °C			
CCCCC(=O)c1c(-c2ccc3c(-c4ccc(C(F)(F)F)cc4)c(OCC(=O)O)ccc3c2)oc2ccccc12 [Example 15, 2-({6-(3-Pentanoyl-1-benzofuran-2-yl)-1-[4-(trifluoromethyl)phenyl]-2-naphthyl}oxy) acetic acid, sodium salt]				8.2 µM
CCCCC(=O)c1c(-c2ccc3c(-c4ccc(C(F)(F)F)cc4)c(OCc4nnn[nH]4)ccc3c2)oc2ccccc12 [Example 18, 1-(2-{6-(1H-1,2,3,4-Tetraazol-5-ylmethoxy)-5-[4-(trifluoromethyl)phenyl]-2-naphthyl}-1-benzofuran-3-yl)-1-pentanone]	189 to 191 °C	6 µM		
CCCCC(=O)c1c(-c2ccc3c(Br)c(OC(Cc4ccccc4)C(=O)O)ccc3c2)oc2ccccc12 (stereo not drawn) [Example 19, 2-{[1-Bromo-6-(3-pentanoyl-1-benzofuran-2-yl)-2-naphthyl]oxy}-3-phenylpropanoic acid]	115 to 117 °C	6.2 µM		
O=C(O)COc1ccc2cc(-c3oc4ccccc4c3C(=O)c3ccccc3)ccc2c1 [Example 26, {[6-(3-benzoyl-1-benzofuran-2-yl)-2-naphthyl]oxy}acetic acid]	178 to 181 °C		49%	
O=C(O)C(Cc1ccccc1)Oc1ccc2cc(-c3oc4ccccc4c3Br)ccc2c1Br (stereo not drawn) [Example 28, 2-{[1-Bromo-6-(3-bromo-1-benzofuran-2-yl)-2-naphthyl]oxy}-3-phenylpropanoic acid]	206 to 209 °C		56%	
CCCCC(=O)c1c(-c2ccc3cc(OCc4nnn[nH]4)ccc3c2)oc2ccc(Cl)cc12 [Example 32, 1-{5-Chloro-2-[6-(1H-tetrazol-5-ylmethoxy)-naphthalen-2-yl]-benzofuran-3-yl}-pentan-1-one]	178 to 180 °C		39%	
CCCCC(=O)c1c(-c2ccc3cc(OCC(=O)O)ccc3c2)oc2ccc(Cl)cc12 [Example 33, [6-(5-Chloro-3-pentanoyl-benzofuran-2-yl)-naphthalen-2-yloxy]-acetic acid]	158 to 160 °C	10.4 µM		

Continued, values first:

melting point	IC50 [1]	inhibition at 25 µM [1]	IC50 [2]	Compound
	7.7 µM			CCCCC(=O)c1c(-c2ccc3c(Br)c(OCc4nnn[nH]4)ccc3c2)oc2ccccc12 [Example 1, 1-{2-[5-Bromo-6-(1H-1,2,3,4-tetraazol-5-ylmethoxy)-2-naphthyl]-1-benzofuran-3-yl}-1-pentanone]
146 to 147 °C		47%		CCCCC(=O)c1c(-c2ccc3c(Br)c(OCC(=O)O)ccc3c2)oc2ccccc12 [Example 5, 2-{[1-Bromo-6-(3-pentanoyl-1-benzofuran-2-yl)-2-naphthyl]oxy}acetic acid]
	14.7 µM			CC(C)CC(=O)c1c(-c2ccc3c(Br)c(OCC(=O)O)ccc3c2)oc2ccccc12 [Example 7]
151 to 153 °C	11.9 µM			CC(C)(C)CC(=O)c1c(-c2ccc3c(Br)c(OCC(=O)O)ccc3c2)oc2ccccc12 [Example 8, 2-({1-Bromo-6-[3-(3,3-dimethylbutanoyl)-1-benzofuran-2-yl]-2-naphthyl}oxy)acetic acid]
176 to 177 °C			18.7 µM	CC(C)CC(=O)c1c(-c2ccc3c(Br)c(OCc4nnn[nH]4)ccc3c2)oc2ccccc12 [Example 9, 1-{2-[5-Bromo-6-(1H-1,2,3,4-tetraazol-5-ylmethoxy)-2-naphthyl]-1-benzofuran-3-yl}-3-methyl-1-butanone]
155 to 156 °C		24%		O=C(O)COc1ccc2cc(-c3oc4ccccc4c3CCC3CCCC3)ccc2c1Br [Example 11, 2-({1-Bromo-6-[3-(2-cyclopentylethyl)-1-benzofuran-2-yl]-2-naphthyl}oxy)acetic acid]
192 to 194 °C				Brc1c(OCc2nnn[nH]2)ccc2cc(-c3oc4ccccc4c3CCC3CCCC3)ccc12 [Example 12, 5-[({1-Bromo-6-[3-(2-cyclopentylethyl)-1-benzofuran-2-yl]-2-naphthyl}oxy)methyl]-1H-1,2,3,4-tetraazole]
186 to 187 °C			10.1 µM	O=C(CC1CCCC1)c1c(-c2ccc3c(Br)c(OCc4nnn[nH]4)ccc3c2)oc2ccccc12 [Example 13, 1-{2-[5-Bromo-6-(1H-1,2,3,4-tetraazol-5-ylmethoxy)-2-naphthyl]-1-benzofuran-3-yl}-2-cyclopentyl-1-ethanone]
169 to 171 °C (dec.)		31%		CCCCCc1c(-c2ccc3c(C)c(OCc4nnn[nH]4)ccc3c2)oc2ccccc12 [Example 21, 5-({[1-Methyl-6-(3-pentyl-1-benzofuran-2-yl)-2-naphthyl]oxy}methyl)-1H-1,2,3,4-tetraazole]
> 183 °C (dec.)		35%		O=C(c1ccccc1)c1c(-c2ccc3c(Br)c(OCc4nnn[nH]4)ccc3c2)oc2ccccc12 [Example 27, {2-[5-Bromo-6-(1H-tetraazol-5-ylmethoxy)-2-naphthyl]-1-benzofuran-3-yl}(phenyl) methanone]
133 to 135 °C		46%		CCCCC(=O)c1c(-c2ccc3c(Br)c(OCc4nnn[nH]4)ccc3c2)oc2ccc(Cl)cc12 [Example 30, 1-{2-[5-Bromo-6-(1H-tetrazol-5-ylmethoxy)-naphthalen-2-yl]-5-chloro-benzofuran-3-yl}-pentan-1-one]
130 to 132 °C	17.1 µM			CCCCC(=O)c1c(-c2ccc3c(Br)c(OCC(=O)O)ccc3c2)oc2ccc(Cl)cc12 [Example 31, [1-Bromo-6-(5-chloro-3-pentanoyl-benzofuran-2-yl)-naphthalen-2-yloxy]-acetic acid]
163 to 165 °C	4.39 µM			CCCCCc1c(-c2ccc3cc(OCC(=O)O)ccc3c2)oc2ccccc12 [Example 35, [6-(3-Pentyl-benzofuran-2-yl)-naphthalen-2-yloxy]-acetic acid]
	4.59 µM			CCCCCc1c(-c2ccc3c(Br)c(OCc4nn[nH]n4)ccc3c2)oc2ccccc12 [Example 37]
